Measurements published in article PMC8424369 (Journal of Pharmaceutical Analysis, 2020).

Tests used:
[1] = Bidirectional transport experiments on Caco-2 cell monolayer model; type: in vitro ADME, human; conditions: human, donor 10 μM, 3 h
Caco-2 cell monolayer = assay: as above; type: in vitro ADME, human; conditions: for Intestinal absorption / transport mechanism speculated from ER: comparison of Papp in two directions; for Papp(AP-BL): AP to BL; for Papp(AP-BL) / Recovery (%) BL-AP / Papp(BL-AP) / ER (efflux ratio, Papp(BL-AP)/Papp(AP-BL)): donor 10 μM, 3 h; for Papp(AP-BL) / Recovery (%) BL-AP / Papp(BL-AP): 37 °C; for Papp(AP-BL) / Papp(BL-AP): single time point, mean ± S.D. (n=3); for Recovery (%) BL-AP / Papp(BL-AP): BL to AP
[2] = Stability of QC samples in transport medium; type: physicochemical; conditions: HBSS, n=3
[3] = high QC conc. (SSs 100, SGF 1000, SGD 800, SGG 2200 nM)
[4] = low QC conc. (SSs 1, SGF 10, SGD 8, SGG 22 nM)
[5] = middle QC conc. (SSs 10, SGF 100, SGD 80, SGG 220 nM)

Intestinal absorption / transport mechanism speculated from ER (Caco-2 cell monolayer)	Stability, Autosampler (4 °C for 8 h), RE (%) [2, 3] [%]	Stability, Bench-top (room temperature for 6 h), RE (%) [2, 3] [%]	Stability, Freeze-thaw (three cycles at −80 °C), RE (%) [2, 3] [%]	Stability, Processed samples (−80 °C for 8 h), RE (%) [2, 3] [%]	Stability, Autosampler (4 °C for 8 h), RE (%) [2, 4] [%]	Stability, Bench-top (room temperature for 6 h), RE (%) [2, 4] [%]	Stability, Freeze-thaw (three cycles at −80 °C), RE (%) [2, 4] [%]	Stability, Processed samples (−80 °C for 8 h), RE (%) [2, 4] [%]	Stability, Autosampler (4 °C for 8 h), RE (%) [2, 5] [%]	Stability, Bench-top (room temperature for 6 h), RE (%) [2, 5] [%]	Stability, Freeze-thaw (three cycles at −80 °C), RE (%) [2, 5] [%]	Stability, Processed samples (−80 °C for 8 h), RE (%) [2, 5] [%]	Papp(AP-BL) (Caco-2 cell monolayer)	Recovery (%) BL-AP (Caco-2 cell monolayer) [%]	Papp(BL-AP) (Caco-2 cell monolayer)	ER (efflux ratio, Papp(BL-AP)/Papp(AP-BL)) (Caco-2 cell monolayer)	SMILES	further results
passive transport	−1.88	0.62	1.36	−1.50	−3.60	−1.06	−7.46	−10.40	0.91	2.00	8.65	2.87	–	–	–	–	C[C@H]1O[C@@H](O[C@H]2CC[C@@]3(C)[C@@H](CC[C@]4(C)[C@@H]3C=C[C@]35OC[C@@]6(CCC(C)(C)C[C@H]63)[C@@H](O)C[C@]54C)[C@]2(C)CO)[C@H](O)[C@@H](O[C@@H]2O[C@H](CO)[C@@H](O)[C@H](O)[C@H]2O)[C@H]1O [SSa]	efflux ratio at 3 h, 10 μM ([1]; Caco-2, ER (efflux ratio, Papp(BL-AP)/Papp(AP-BL))): 1.15; Papp A→B at 3 h, 10 μM ([1]; Caco-2, Papp(AP-BL), AP to BL, 37 °C, single time point, mean ± S.D. (n=3)): 0.088 ± 0.014 ×10⁻⁶ cm/s; Papp B→A at 3 h, 10 μM ([1]; Caco-2, Papp(BL-AP), BL to AP, 37 °C, single time point, mean ± S.D. (n=3)): 0.102 ± 0.031 ×10⁻⁶ cm/s; recovery at 3 h, 10 μM ([1]; Caco-2, Recovery (%) BL-AP, BL to AP, 37 °C): 77.6%
passive transport	5.11	−0.27	8.34	4.04	0.92	0.01	2.62	3.52	0.35	5.34	3.06	6.93	0.051 ± 0.010 × 10^−6 cm/s	68.12	0.055 ± 0.011 × 10^−6 cm/s	1.09	C[C@H]1O[C@@H](O[C@H]2CC[C@@]3(C)[C@@H](CC[C@]4(C)[C@@H]3C=CC3=C5CC(C)(C)CC[C@]5(CO)[C@H](O)C[C@]34C)[C@]2(C)CO)[C@H](O)[C@@H](O[C@@H]2O[C@H](CO)[C@@H](O)[C@H](O)[C@H]2O)[C@H]1O [SSb2]	–

SMILES	Intestinal absorption / transport mechanism speculated from ER (Caco-2 cell monolayer)	Stability, Autosampler (4 °C for 8 h), RE (%) [2, 3] [%]	Stability, Bench-top (room temperature for 6 h), RE (%) [2, 3] [%]	Stability, Freeze-thaw (three cycles at −80 °C), RE (%) [2, 3] [%]	Stability, Processed samples (−80 °C for 8 h), RE (%) [2, 3] [%]	Stability, Autosampler (4 °C for 8 h), RE (%) [2, 4] [%]	Stability, Bench-top (room temperature for 6 h), RE (%) [2, 4] [%]	Stability, Freeze-thaw (three cycles at −80 °C), RE (%) [2, 4] [%]	Stability, Processed samples (−80 °C for 8 h), RE (%) [2, 4] [%]	Stability, Autosampler (4 °C for 8 h), RE (%) [2, 5] [%]	Stability, Bench-top (room temperature for 6 h), RE (%) [2, 5] [%]	Stability, Freeze-thaw (three cycles at −80 °C), RE (%) [2, 5] [%]	Stability, Processed samples (−80 °C for 8 h), RE (%) [2, 5] [%]	Papp(AP-BL) (Caco-2 cell monolayer)	Recovery (%) BL-AP (Caco-2 cell monolayer) [%]	Papp(BL-AP) (Caco-2 cell monolayer)	ER (efflux ratio, Papp(BL-AP)/Papp(AP-BL)) (Caco-2 cell monolayer)	further results
C[C@H]1O[C@@H](O[C@H]2CC[C@@]3(C)[C@@H](CC[C@]4(C)[C@@H]3C=C[C@]35OC[C@@]6(CCC(C)(C)C[C@H]63)[C@H](O)C[C@]54C)[C@]2(C)CO)[C@H](O)[C@@H](O[C@@H]2O[C@H](CO)[C@@H](O)[C@H](O)[C@H]2O)[C@H]1O [SSd]	certain uptake transporters were probably involved	−0.92	−8.09	12.04	−5.31	−5.69	0.83	−1.11	1.51	−0.46	8.37	5.76	−0.37	0.312 ± 0.020 × 10^−6 cm/s	68.96	0.079 ± 0.012 × 10^−6 cm/s	0.25	–
